According to patent publication US4275248A, “Preparation of 2,4,6-triisopropylphenol” (UOP Inc., priority 1980, dated 1981):
“Also recorded” adds a separate entry of the source. Read-outs that look alike come from different tables or passages of the source.

Experiments:
[1] = Induction period prior to oxidation, ANSI/ASTM method D525-74, gasoline sample A
Procedure: (§1) The effectiveness of materials as antioxidants in liquid petroleum products was determined by measurement of the induction period prior to oxidation, ANSI/ASTM method D525-74, and by measurement of gum formation under accelerated storage conditions, ANSI/ASTM method D873-74. The liquid petroleum product was either a base washed riser-cracked gasoline from British Petroleum Co., Canada (sample A) or a base washed, blended full range gasoline from Union Oil (sample B). As a comparison, there is included an antioxidant of wide commercial utility which consists of 2,6-di-t-butylphenol (75%), 2,4,6-tri-t-butylphenol (15%) and 2,t-butylphenol (10%) and which we designate by the symbol E733.

[2] = Gum formation under accelerated storage conditions, ANSI/ASTM method D873-74, gasoline sample A
Procedure: as §1

[3] = Oxidative stability of gasoline / petroleum distillates, overall antioxidant effectiveness in words; conditions: for effectiveness in increasing the induction period: versus commercial product commonly used to stabilize gasoline
Text: Among the products which may be prepared by this invention, the di- and tri-isopropylated hydroxy substituted aromatic compounds are effective antioxidants for stabilizing various petroleum distillates. Examples of the latter include home heating fuel, gasoline, diesel fuel, aviaton fuel, kerosene, and lubricating oils. […] One way of determining the stabilizing effect of additives is to compare the induction period to oxidation of a composton differing only in the nature of the additive present. […] The di- and tri-isopropylated phenols of the present invention may be used as antioxidants at concentrations from about 5 parts per million by weight to about 5% by weight, and preferably from about 5 to about 500 parts per million by weight when used in fuel oils.
as §1

[4] = Gum formation under accelerated storage conditions, ANSI/ASTM method D873-74, gasoline sample B; conditions: runs 4-7 (no additive: 320)
Procedure: as §1

[5] = Induction period prior to oxidation, ANSI/ASTM method D525-74, gasoline sample B; conditions: runs 4-7 (no additive: 80-105)
Procedure: as §1

[6] = 20 ppm, runs 4-7 (no additive: 125-130)
[7] = 35 ppm, runs 4-7 (no additive: 125-130)
[8] = 50 ppm, runs 4-7 (no additive: 125-130)
[9] = 35 ppm, runs 4-7 (no additive: 180)
[10] = 50 ppm, runs 4-7 (no additive: 180)

| Structure (SMILES) | Induction Period ([1]; 20 ppm, runs 1-3 (no additive: 170)) [min] | Induction Period ([1]; 40 ppm, runs 1-3 (no additive: 170)) [min] | Accelerated Gum ([2]; 20 ppm, runs 1-3 (no additive: 45)) [mg/100 ml] | Accelerated Gum ([2]; 40 ppm, runs 1-3 (no additive: 45)) [mg/100 ml] | antioxidant effectiveness for stabilizing petroleum distillates ([3]; general statement in words) | effectiveness in increasing the induction period [3] | imparting oxidative stability to the gasolines tested ([3]; versus commercial standard, measured by increase in induction period and decrease in gum formation) | Induction Period [1, 6] [min] | Induction Period [1, 7] [min] | Induction Period [1, 8] [min] | Accelerated Gum [2, 9] | Accelerated Gum [2, 10] | Accelerated Gum ([4]; 20 ppm) [mg/100 ml] | Accelerated Gum ([4]; 35 ppm) [mg/100 ml] | Accelerated Gum ([4]; 50 ppm) [mg/100 ml] | antioxidant effectiveness for stabilizing petroleum distillates [3] | imparting oxidative stability to the gasolines tested [3] | Induction Period ([5]; 20 ppm) [min] | Induction Period ([5]; 35 ppm) [min] | Induction Period ([5]; 50 ppm) [min] |
| --- | --- | --- | --- | --- | --- | --- | --- | --- | --- | --- | --- | --- | --- | --- | --- | --- | --- | --- | --- | --- |
| Cc1cc(C(C)C)c(O)c(C(C)C)c1 [2,6-diisopropyl-4-methylphenol] | 340 | 475 | 5 | 3 | particularly effective; also recorded: particularly desirable antioxidant properties | substantially more effective in increasing the induction period | substantially more effective than an accepted commercial standard |  |  |  |  |  |  |  |  |  |  |  |  |  |
| CC(C)c1cc(C(C)C)c(O)c(C(C)C)c1 [2,4,6-triisopropylphenol] |  |  |  |  |  | substantially more effective in increasing the induction period |  | 245 | 310 | 375 | 7-8 mg/100 ml | 7-8 mg/100 ml | 13 | 2.5 | 2.5 | particularly effective | substantially more effective than an accepted commercial standard | 270 | 350 | 420 |
| CC(C)c1cccc(C(C)C)c1O [2,6-diisopropylphenol] |  |  |  |  |  |  |  | 200 | 240 | 305 | 35 mg/100 ml | 9 mg/100 ml |  | 4.5 | 3.5 |  |  | 195 | 250 | 310 |
